Measured values reported in ChEMBL document CHEMBL4422610, “HDAC as onco target: Reviewing the synthetic approaches with SAR study of their inhibitors” (Eur J Med Chem, 2018).

Key:
Histone deacetylase 4 = Histone deacetylase 4 (Homo sapiens, UniProt P56524); assay: Inhibition of human HDAC4 using fluorogenic HDAC substrate
Histone deacetylase 7 = biological target: T1, Histone deacetylase 7 (Homo sapiens, UniProt Q8WUI4); assay: Inhibition of human HDAC7 using fluorogenic HDAC substrate
T1 sequence (Q8WUI4 whole entry): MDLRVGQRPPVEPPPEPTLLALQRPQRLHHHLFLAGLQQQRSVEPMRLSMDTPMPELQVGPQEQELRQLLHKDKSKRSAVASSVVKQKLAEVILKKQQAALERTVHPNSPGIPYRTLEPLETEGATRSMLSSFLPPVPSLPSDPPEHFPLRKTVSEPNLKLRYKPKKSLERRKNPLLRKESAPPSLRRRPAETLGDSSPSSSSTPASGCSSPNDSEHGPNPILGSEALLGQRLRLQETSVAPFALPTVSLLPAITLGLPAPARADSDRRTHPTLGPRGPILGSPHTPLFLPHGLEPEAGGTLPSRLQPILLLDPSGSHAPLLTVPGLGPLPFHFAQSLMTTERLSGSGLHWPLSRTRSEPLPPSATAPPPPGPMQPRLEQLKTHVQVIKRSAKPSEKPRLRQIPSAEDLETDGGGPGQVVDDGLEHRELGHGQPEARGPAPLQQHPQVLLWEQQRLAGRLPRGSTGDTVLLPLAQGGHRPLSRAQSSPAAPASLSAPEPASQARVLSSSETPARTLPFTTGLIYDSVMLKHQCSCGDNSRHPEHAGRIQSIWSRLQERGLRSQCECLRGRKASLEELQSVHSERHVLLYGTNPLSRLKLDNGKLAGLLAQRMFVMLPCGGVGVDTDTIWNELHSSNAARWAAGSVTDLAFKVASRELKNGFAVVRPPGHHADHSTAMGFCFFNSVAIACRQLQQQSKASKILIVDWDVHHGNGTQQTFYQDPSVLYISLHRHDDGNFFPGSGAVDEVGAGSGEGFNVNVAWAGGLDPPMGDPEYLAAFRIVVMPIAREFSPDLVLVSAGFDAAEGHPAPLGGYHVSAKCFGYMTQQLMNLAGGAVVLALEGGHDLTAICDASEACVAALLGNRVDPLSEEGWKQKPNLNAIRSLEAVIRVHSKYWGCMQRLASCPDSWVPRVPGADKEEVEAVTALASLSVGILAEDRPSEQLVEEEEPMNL

Histone deacetylase 1 = Histone deacetylase 1 (Homo sapiens, UniProt Q13547); assay: Inhibition of human HDAC1 using fluorogenic HDAC substrate
Chain of Histone deacetylase 1 (Q13547 whole entry): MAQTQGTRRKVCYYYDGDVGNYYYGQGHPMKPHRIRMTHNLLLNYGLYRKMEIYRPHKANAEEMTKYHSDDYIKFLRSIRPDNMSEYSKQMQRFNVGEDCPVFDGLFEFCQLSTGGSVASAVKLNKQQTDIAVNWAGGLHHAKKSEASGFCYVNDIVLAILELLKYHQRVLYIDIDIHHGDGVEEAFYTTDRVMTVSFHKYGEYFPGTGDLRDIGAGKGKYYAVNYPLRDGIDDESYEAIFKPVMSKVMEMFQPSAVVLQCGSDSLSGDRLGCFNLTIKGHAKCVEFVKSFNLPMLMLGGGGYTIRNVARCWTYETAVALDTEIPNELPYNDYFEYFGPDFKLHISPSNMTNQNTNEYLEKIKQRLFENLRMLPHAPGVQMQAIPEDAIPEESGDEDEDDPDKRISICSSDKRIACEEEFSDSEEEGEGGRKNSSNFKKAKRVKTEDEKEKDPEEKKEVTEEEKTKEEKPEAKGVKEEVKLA

Chain of Histone deacetylase 4 (P56524 whole entry): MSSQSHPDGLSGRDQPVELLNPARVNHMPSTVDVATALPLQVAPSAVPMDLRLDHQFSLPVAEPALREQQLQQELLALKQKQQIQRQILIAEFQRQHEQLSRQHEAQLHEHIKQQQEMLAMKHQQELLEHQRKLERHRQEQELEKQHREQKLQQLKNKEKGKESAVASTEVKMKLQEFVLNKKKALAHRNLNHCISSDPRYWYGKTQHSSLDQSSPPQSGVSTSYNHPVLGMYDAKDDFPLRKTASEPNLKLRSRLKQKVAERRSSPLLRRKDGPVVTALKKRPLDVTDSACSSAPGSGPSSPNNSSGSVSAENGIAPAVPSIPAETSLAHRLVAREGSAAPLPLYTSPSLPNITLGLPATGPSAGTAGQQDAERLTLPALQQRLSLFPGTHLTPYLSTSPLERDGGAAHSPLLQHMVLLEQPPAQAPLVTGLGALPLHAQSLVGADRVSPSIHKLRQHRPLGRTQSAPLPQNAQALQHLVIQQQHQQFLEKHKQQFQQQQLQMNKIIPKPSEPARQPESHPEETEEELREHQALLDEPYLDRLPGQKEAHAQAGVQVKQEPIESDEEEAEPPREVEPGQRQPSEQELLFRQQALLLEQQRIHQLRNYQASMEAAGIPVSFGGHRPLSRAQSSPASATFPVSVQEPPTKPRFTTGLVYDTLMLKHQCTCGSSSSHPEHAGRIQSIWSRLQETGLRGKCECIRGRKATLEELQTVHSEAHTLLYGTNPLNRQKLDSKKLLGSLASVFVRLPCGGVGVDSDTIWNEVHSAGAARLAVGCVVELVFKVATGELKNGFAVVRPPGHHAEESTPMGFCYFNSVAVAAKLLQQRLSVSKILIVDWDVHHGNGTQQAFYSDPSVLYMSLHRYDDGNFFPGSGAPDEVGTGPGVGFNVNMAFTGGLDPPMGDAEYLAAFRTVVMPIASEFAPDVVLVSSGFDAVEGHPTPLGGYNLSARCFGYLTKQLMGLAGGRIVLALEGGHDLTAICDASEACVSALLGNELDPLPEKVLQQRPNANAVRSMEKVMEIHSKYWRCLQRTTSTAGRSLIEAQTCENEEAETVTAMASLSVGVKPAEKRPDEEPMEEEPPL

- IC50 (Histone deacetylase 4): > 30 µM
- IC50 (Histone deacetylase 7): > 30 µM
- IC50 (Histone deacetylase 1): 4.9 µM
Structure (SMILES): O=C(NO)c1ccc(CN2c3ccccc3CC[C@@H]3CCCC[C@H]32)cc1
